From US7414072B2, “Aryl 5-thio-β-d-glucopyranoside derivatives and therapeutic agents for diabetes containing the same” (Taisho Pharmaceutical Co., Ltd., priority 2002, dated 2008)

Compound	melting point
CCc1ccccc1Cc1ccccc1O[C@@H]1S[C@H](CO)[C@@H](O)[C@H](O)[C@H]1O [Compound 58]	96 to 101 °C
OC[C@H]1S[C@@H](Oc2ccc(Cl)cc2Cc2c(F)cccc2Cl)[C@H](O)[C@@H](O)[C@@H]1O [Compound 59, 2′-(2′-chloro-6′-fluorobenzyl)-4′-chlorophenyl 5-thio-β-D-glucopyranoside]	183.5 to 185 °C
OC[C@H]1S[C@@H](Oc2ccc(Cl)cc2Cc2ccc(F)cc2F)[C@H](O)[C@@H](O)[C@@H]1O [Compound 60, 4′-chloro-2′-(2′,4′-difluorobenzyl)phenyl 5-thio-β-D-glucopyranoside]	175.5 to 177 °C
OC[C@H]1S[C@@H](Oc2ccc(Cl)cc2Cc2cccc(F)c2)[C@H](O)[C@@H](O)[C@@H]1O [Compound 61, 4′-chloro-2′-(3′-fluorobenzyl)phenyl 5-thio-β-D-glucopyranoside]	182 to 183 °C
OC[C@H]1S[C@@H](Oc2ccc(Cl)cc2Cc2cccc(Oc3ccccc3)c2)[C@H](O)[C@@H](O)[C@@H]1O [Compound 62]	124.5 to 127 °C
CC(C)c1ccc(Cc2cc(Cl)ccc2O[C@@H]2S[C@H](CO)[C@@H](O)[C@H](O)[C@H]2O)cc1 [Compound 63, 4′-chloro-2′-(4′-isopropylbenzyl)phenyl 5-thio-β-D-glucopyranoside]	146 to 148.5 °C
CCc1ccc(Cc2ccc(F)cc2O[C@@H]2S[C@H](CO)[C@@H](O)[C@H](O)[C@H]2O)cc1 [Compound 64, 2′-(4′-ethylbenzyl)-5′-fluorophenyl 5-thio-β-D-glucopyranoside]	156 to 157 °C
COc1cc(OC)c(Cc2ccccc2O[C@@H]2S[C@H](CO)[C@@H](O)[C@H](O)[C@H]2O)c(OC)c1 [Compound 65, 2′-(2′,4′,6′-trimethoxybenzyl)phenyl 5-thio-β-D-glucopyranoside]	100 to 105 °C
OC[C@H]1S[C@@H](Oc2ccc(Cl)cc2Cc2c(F)c(F)cc(F)c2F)[C@H](O)[C@@H](O)[C@@H]1O [Compound 66, 4′-chloro-2′-(2′,3′,5′,6′-tetrafluorobenzyl)phenyl 5-thio-β-D-glucopyranoside]	204 to 211 °C
OC[C@H]1S[C@@H](Oc2ccc(Cl)cc2Cc2ccc(-c3ccccc3)cc2)[C@H](O)[C@@H](O)[C@@H]1O [Compound 67, 4′-chloro-2′-(4′-phenylbenzyl)phenyl 5-thio-β-D-glucopyranoside]	187 to 195 °C
OC[C@H]1S[C@@H](Oc2ccc(Cl)cc2Cc2cccc3ccccc23)[C@H](O)[C@@H](O)[C@@H]1O [Compound 68]	170 to 175 °C
OC[C@H]1S[C@@H](Oc2ccc(Cl)cc2Cc2cccc(OC(F)(F)F)c2)[C@H](O)[C@@H](O)[C@@H]1O [Compound 69, 4′-chloro-2′-(3′-trifluoromethoxybenzyl)phenyl 5-thio-β-D-glucopyranoside]	146 to 148 °C
OC[C@H]1S[C@@H](Oc2ccc(Cl)cc2Cc2ccc(Cl)cc2Cl)[C@H](O)[C@@H](O)[C@@H]1O [Compound 70, 4′-chloro-2′-(2′,4′-dichlorobenzyl)phenyl 5-thio-β-D-glucopyranoside]	172 to 174 °C
OC[C@H]1S[C@@H](Oc2ccc(Cl)cc2Cc2ccc3ccccc3c2)[C@H](O)[C@@H](O)[C@@H]1O [Compound 71]	192 to 194 °C
CCCCCOc1ccc(Cc2cc(Cl)ccc2O[C@@H]2S[C@H](CO)[C@@H](O)[C@H](O)[C@H]2O)cc1 [Compound 72, 4′-chloro-2′-(4′-pentyloxybenzyl)phenyl 5-thio-β-D-glucopyranoside]	143 to 144.5 °C
OC[C@H]1S[C@@H](Oc2ccccc2Cc2ccc(N3CCOCC3)cc2)[C@H](O)[C@@H](O)[C@@H]1O [Compound 73, 2′-(4′-morpholinobenzyl)phenyl 5-thio-β-D-glucopyranoside]	174 to 176.5 °C
OC[C@H]1S[C@@H](Oc2ccccc2Cc2ccc(N3CCCCC3)cc2)[C@H](O)[C@@H](O)[C@@H]1O [Compound 74, 2′-(4′-piperidinobenzyl)phenyl 5-thio-β-D-glucopyranoside]	156.5 to 160 °C
CC(C)(C)c1ccc(Cc2cc(Cl)ccc2O[C@@H]2S[C@H](CO)[C@@H](O)[C@H](O)[C@H]2O)cc1 [Compound 75, 2′-(4′-t-butylbenzyl)-4′-chlorophenyl 5-thio-β-D-glucopyranoside]	79 to 82.5 °C
OC[C@H]1S[C@@H](Oc2ccc(Cl)cc2Cc2cc(F)cc(C(F)(F)F)c2)[C@H](O)[C@@H](O)[C@@H]1O [Compound 76, 4′-chloro-2′-(3′-fluoro-5′-trifluoromethylbenzyl)phenyl 5-thio-β-D-glucopyranoside]	126 to 129 °C
CCc1ccc(Cc2ccc(COC(C)=O)cc2O[C@@H]2S[C@H](CO)[C@@H](O)[C@H](O)[C@H]2O)cc1 [Compound 77, 5′-(acetoxymethyl)-2′-(4′-ethylbenzyl)phenyl 5-thio-β-D-glucopyranoside]	158 to 160 °C
OC[C@H]1S[C@@H](Oc2ccc(Cl)cc2Cc2ccccc2CCc2ccccc2)[C@H](O)[C@@H](O)[C@@H]1O [Compound 78]	128 to 130 °C
OC[C@H]1S[C@@H](Oc2ccc(Cl)cc2Cc2ccccc2Cc2ccccc2)[C@H](O)[C@@H](O)[C@@H]1O [Compound 79]	150.5 to 151.5 °C
COc1ccc(Cc2cc(Cl)ccc2O[C@@H]2S[C@H](CO)[C@@H](O)[C@H](O)[C@H]2O)c(OC)c1 [Compound 80, 4′-chloro-2′-(2′,4′-dimethoxybenzyl)phenyl 5-thio-β-D-glucopyranoside]	195.5 to 197 °C
CCOc1ccccc1Cc1cc(Cl)ccc1O[C@@H]1S[C@H](CO)[C@@H](O)[C@H](O)[C@H]1O [Compound 81, 4′-chloro-2′-(2′-ethoxybenzyl)phenyl 5-thio-β-D-glucopyranoside]	196.5 to 198.5 °C
Cc1ccccc1Cc1cc(Cl)ccc1O[C@@H]1S[C@H](CO)[C@@H](O)[C@H](O)[C@H]1O [Compound 82, 4′-chloro-2′-(2′-methylbenzyl)phenyl 5-thio-β-D-glucopyranoside]	147 to 149 °C
COc1ccc(CNC(=O)c2c(O)cccc2O[C@@H]2S[C@H](CO)[C@@H](O)[C@H](O)[C@H]2O)cc1 [Compound 84, 3′-hydroxy-2′-(4′-methoxybenzylaminocarbonyl)phenyl 5-thio-β-D-glucopyranoside]	183 to 185 °C
NC(=O)c1ccc(Cc2ccccc2O[C@@H]2S[C@H](CO)[C@@H](O)[C@H](O)[C@H]2O)cc1 [Compound 85, 2′-(4′-carbamoylbenzyl)phenyl 5-thio-β-D-glucopyranoside]	215.5 to 216 °C
CN(C)C(=O)c1ccc(Cc2ccccc2O[C@@H]2S[C@H](CO)[C@@H](O)[C@H](O)[C@H]2O)cc1 [Compound 86, 2′-(4′-N,N-dimethylaminocarbonylbenzyl)phenyl 5-thio-β-D-glucopyranoside]	193.5 to 194 °C
OC[C@H]1S[C@@H](Oc2ccccc2Cc2ccc(C3CC3)cc2)[C@H](O)[C@@H](O)[C@@H]1O [Compound 90, 2′-(4′-cyclopropylbenzyl)phenyl 5-thio-β-D-glucopyranoside]	148 to 148.5 °C
O=C(Nc1ccccc1)c1cc2ccccc2cc1O[C@@H]1S[C@H](CO)[C@@H](O)[C@H](O)[C@H]1O [Compound 92]	200 to 202 °C
